Measurements reported in patent US12178839B2, “Anti-obesity agent, pollakiuria improving agent, and autonomic nervous activity regulator” (ASAHI GROUP HOLDINGS, LTD., priority 2018, dated 2024).
Ends that are not written are not given here.

Tested on: Male Wistar rats
Test: Rat spontaneous urination test (metabolism cage), Test Example 6
Assay type: in vivo
Conditions: aqueous 0.1 mg/mL LNDP solution as drinking for 7 days
Protocol: It was confirmed from Test Example 2 that LNDP promotes the efferent hypogastric nerve activity, and it was confirmed from Test Example 3 that LNDP inhibits the efferent the pelvic splanchnic nerve activity. Influence on the bladder, which is one of the internal organs dominated by these nerves, was therefore investigated.
Male Wistar rats which are 13 weeks old were received, and quarantined and acclimated in a thermostat animal room at 18 to 28° C. in a cycle including a 12-hour light period and a 12-hour dark period for 1 week, and ten 14- to 16-week-old rats per group were tested. An aqueous 0.1 mg/mL LNDP solution or water was ingested from drinking for 7 days, and the urination amount was measured as weight with an electronic balance installed under a urine-collecting opening in raising with a metabolism cage. The weight data of the electronic balance every minute were automatically inputted into a computer. […] The total urination amount and the frequency of urination per day were found, and the urine amount per one time of urination (=the total urination amount per day/the frequency of urination per day) was calculated as to an individual of each group. […] As to the comparison of the test substance and ingestion days with respect to each measured value, two-way analysis of variance (two-way ANOVA) with replication was performed.

## NIPPLTQTPVVVPPFLQPE [LNDP, Asn-Ile-Pro-Pro-Leu-Thr-Gln-Thr-Pro-Val-Val-Val-Pro-Pro-Phe-Leu-Gln-Pro-Glu]
  significant difference in change in body weight vs water ingestion group: not observed
  significant difference in the general symptoms vs water ingestion group: not observed
